From patent publication US7700584B2 (Hangzhou Minsheng Pharmaceuticals Co., Ltd., priority 2004, dated 2010)
Counter-ions that a name gives are not always drawn. Like-named read-outs stand apart in the source and are kept apart here.

Columns and labels:
[1] = system: Hela human cervical carcinoma; test: In vitro inhibition rate to tumor cells (MTT), Hela; type: cell-based; conditions: 50 μg/ml; for inhibition at 50 µg/mL: Homo sapiens, HeLa, read-out: inhibition rate, Results (%) Hela
[2] = system: HL-60 human promyelocytic leukemia; test: In vitro anti-tumor IC50 (MTT), HL-60; type: cell-based; conditions: Homo sapiens, HL-60; Table 4; read-out: IC50 (ug/ml) against tumor cell lines, HL-60
Protocol: (§1) (1) Single cell suspension was seeded into 96-well plates (the cells was diluted in the PRMI-1640 minimum medium to 3×10^4 cells/ml, […] diluted cells/well). […] The experiments were performed in quadruplicate.
(§2) (2) The medium was removed. Solutions of the anti-tumor agents (50 compounds) were prepared in a freshly prepared medium at serial concentrations. […] of the solution was added into each well. Incubation was continued for 48 hours.
(§3) (3) 20 ug of 2 mg/ml MTT was added into each well, and incubated for 4 hours.
(§4) (4) The medium was removed from the well. The microplates were swiftly turned down to throw-off the medium. […] of DMSO was added into each well, and vortexed at room temperature for 10 minutes.
(§5) (5) OD value (λ=570 nm) was measured with an Enzyme-Linked Detector.
(§6) (6) The graph of cell vitality was plotted, and IC50 was calculated.

[3] = system: SMMC-7721 human hepatic carcinoma; test: In vitro inhibition rate to tumor cells (MTT), SMMC-7721; type: cell-based; conditions: for inhibition at 50 µg/mL: Homo sapiens, SMMC-7721, 50 μg/ml, read-out: inhibition rate, Results (%) SMMC-7721; for inhibition rate, Results (%) SMMC-7721: 50 μg/ml
[4] = system: U-937 human histocytic lymphoma; test: In vitro anti-tumor IC50 (MTT), U-937; type: cell-based; conditions: Homo sapiens, U-937; Table 4; read-out: IC50 (ug/ml) against tumor cell lines, U-937
[5] = system: HL-60 human promyelocytic leukemia; test: In vitro inhibition rate to tumor cells (MTT), HL-60; type: cell-based; conditions: for inhibition at 50 µg/mL: Homo sapiens, HL-60, 50 μg/ml, read-out: inhibition rate, Results (%) HL-60; for inhibition rate, Results (%) HL-60: 50 μg/ml
[6] = system: MCF-7 human mammary adenocarcinoma; test: In vitro anti-tumor IC50 (MTT), MCF-7; type: cell-based; conditions: Homo sapiens, MCF7; Table 4; read-out: IC50 (ug/ml) against tumor cell lines, MCF
Protocol: as §1, §2, §3, §4, §5, §6

[7] = system: U-937 human histocytic lymphoma; test: In vitro inhibition rate to tumor cells (MTT), U-937; type: cell-based; conditions: for inhibition at 50 µg/mL: Homo sapiens, U-937, 50 μg/ml, read-out: inhibition rate, Results (%) U-937; for inhibition rate, Results (%) U-937: 50 μg/ml
[8] = system: Hela human cervical carcinoma; test: In vitro anti-tumor IC50 (MTT), Hela; type: cell-based; conditions: Homo sapiens, HeLa; Table 4; read-out: IC50 (ug/ml) against tumor cell lines, Hela
[9] = target: T1, HIV-1 reverse transcriptase (Human immunodeficiency virus type 1 group M subtype B, UniProt P04585); test: Screening for the in vitro activity against the HIV-1 reverse transcriptase; type: biochemical; conditions: IC50, initial concentration 200 μg/ml
T1 construct: purchased
Outline: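 Colorimetric RT activity assay: HIV-1 RT incorporates Biotin-dUTP into an immobilized template, detected with streptavidin-HRP at OD450. Samples were dissolved in DMSO, then serially diluted 5× in water to five concentrations, and incubated with enzyme and Biotin-dUTP in reaction buffer.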

[10] = system: Bel-7402 human hepatic carcinoma; test: In vitro inhibition rate to tumor cells (MTT), Bel-7402; type: cell-based; conditions: for inhibition at 50 µg/mL: Homo sapiens, Bel-7402, 50 μg/ml, read-out: inhibition rate, Results (%) Bel-7402; for inhibition rate, Results (%) Bel-7402: 50 μg/ml
[11] = system: 293 cells; test: Cell status of 293 cells treated with sample alone (herpes virus screening); conditions: for Cytopathy and cell status, Sample: 24 hrs
[12] = system: LLC mouse Lewis lung carcinoma; test: In vitro inhibition rate to tumor cells (MTT), LLC; type: cell-based; conditions: 50 μg/ml; for inhibition at 50 µg/mL: Mus musculus, Lewis lung carcinoma
[13] = system: MCF-7 human mammary adenocarcinoma; test: In vitro inhibition rate to tumor cells (MTT), MCF-7; type: cell-based; conditions: for inhibition at 50 µg/mL: Homo sapiens, MCF7, 50 μg/ml, read-out: inhibition rate, Results (%) MCF-7; for inhibition rate, Results (%) MCF-7: 50 μg/ml
[14] = target: T2, HIV-1 integrase (HIV-1 IN) (Human immunodeficiency virus type 1 group M subtype B, UniProt P04585); test: Screening for the activity against HIV-1 integrase; type: biochemical; conditions: for inhibition at 100 µg/mL: read-out: IC50
T2 construct: a purified HIV-1 integrase was added into each well; purchased
Outline: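 Purified HIV-1 integrase with plate-bound 30-nt donor oligonucleotide and biotinylated 20-nt target oligonucleotide; samples tested at four 5-fold serial dilutions. Strand-transfer product detected by ELISA with biotin-labeled alkaline phosphatase, read as OD450.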

[15] = initial concentration 100 μg/ml

CC(C)C1CC23OC1(O)CC(=CN1CCNCC1)C2CCC3C (centres unmarked) [Compound 8, Curcumol piperazine hydrochloride]
inhibition at 50 µg/mL ([1]; Table 1): 91.9% | inhibition at 50 µg/mL ([1]; Table 2 (repeated screening)): 92% | inhibition at 50 µg/mL ([1]; Table 3 (repeated screening)): 91.5% | IC50 [2]: 1.68 µg/mL | inhibition at 50 µg/mL ([3]; Table 1): 4.5% | inhibition at 50 µg/mL ([3]; Table 2 (repeated screening)): 2.3% | inhibition at 50 µg/mL ([3]; Table 3 (repeated screening)): 7.98% | IC50 [4]: 0.81 µg/mL | inhibition at 50 µg/mL ([5]; Table 1): 92% | inhibition at 50 µg/mL ([5]; Table 2 (repeated screening)): 90.2% | inhibition at 50 µg/mL ([5]; Table 3 (repeated screening)): 91.1% | IC50 [6]: 3.28 µg/mL | inhibition at 50 µg/mL ([7]; Table 1): 90.3% | inhibition at 50 µg/mL ([7]; Table 2 (repeated screening)): 91.3% | inhibition at 50 µg/mL ([7]; Table 3 (repeated screening)): 94.4% | IC50 [8]: 0.59 µg/mL | IC50 [9]: > 624 µM | inhibition at 50 µg/mL ([10]; Table 1): 54.3% | inhibition at 50 µg/mL ([10]; Table 2 (repeated screening)): 50.5% | inhibition at 50 µg/mL ([10]; Table 3 (repeated screening)): 54.9% | Cytopathy and cell status, Sample ([11]; 200 μg/ml): Good | inhibition at 50 µg/mL ([12]; Table 1): 12.1% | inhibition at 50 µg/mL ([12]; Table 2 (repeated screening)): 1.02% | inhibition at 50 µg/mL ([12]; Table 3 (repeated screening)): 3.12% | inhibition at 50 µg/mL ([13]; Table 1): 89.1% | inhibition at 50 µg/mL ([13]; Table 2 (repeated screening)): 85.2% | inhibition at 50 µg/mL ([13]; Table 3 (repeated screening)): 86.2% | inhibition at 100 µg/mL [14, 15]: < 50%

CC(C)C1CC23OC1(O)CC(=CBr)C2CCC3C (centres unmarked) [Compound 17, Curcumol monobromide]
inhibition at 50 µg/mL ([1]; Table 1): 91.6% | inhibition at 50 µg/mL ([1]; Table 2 (repeated screening)): 92.4% | IC50 [2]: 1.85 µg/mL | inhibition at 50 µg/mL ([3]; Table 1): 10.2% | inhibition at 50 µg/mL ([3]; Table 2 (repeated screening)): 0.32% | IC50 [4]: 0.92 µg/mL | inhibition at 50 µg/mL ([5]; Table 1): 92.3% | inhibition at 50 µg/mL ([5]; Table 2 (repeated screening)): 90.1% | IC50 [6]: 4.63 µg/mL | inhibition at 50 µg/mL ([7]; Table 1): 87.2% | inhibition at 50 µg/mL ([7]; Table 2 (repeated screening)): 85.1% | IC50 [8]: 1.5 µg/mL | IC50 [9]: > 634 µM | inhibition at 50 µg/mL ([10]; Table 1): -12.4% | inhibition at 50 µg/mL ([10]; Table 2 (repeated screening)): -10.9% | Cytopathy and cell status, Sample ([11]; 200 μg/ml): Good | inhibition at 50 µg/mL ([12]; Table 1): 7.27% | inhibition at 50 µg/mL ([12]; Table 2 (repeated screening)): 2.31% | inhibition at 50 µg/mL ([13]; Table 1): 53.9% | inhibition at 50 µg/mL ([13]; Table 2 (repeated screening)): 50.3% | inhibition at 100 µg/mL [14, 15]: < 50%

C=C1CC2(OS(=O)(=O)O)OC3(CC2C(C)C)C(C)CCC13 (centres unmarked) [Compound 20, Curcumol sulfonate]
inhibition at 50 µg/mL ([1]; Table 1): 94.2% | inhibition at 50 µg/mL ([1]; Table 2 (repeated screening)): 90.6% | inhibition at 50 µg/mL ([1]; Table 3 (repeated screening)): 92.5% | IC50 [2]: 0.45 µg/mL | inhibition rate, Results (%) SMMC-7721 ([3]; Table 1): 18.08% | inhibition rate, Results (%) SMMC-7721 ([3]; Table 2 (repeated screening)): 1.23% | inhibition rate, Results (%) SMMC-7721 ([3]; Table 3 (repeated screening)): 6.56% | IC50 [4]: 0.95 µg/mL | inhibition at 50 µg/mL ([5]; Table 1): 91.3% | inhibition at 50 µg/mL ([5]; Table 2 (repeated screening)): 92.4% | inhibition at 50 µg/mL ([5]; Table 3 (repeated screening)): 91.7% | IC50 [6]: 4.98 µg/mL | inhibition at 50 µg/mL ([7]; Table 1): 89.2% | inhibition at 50 µg/mL ([7]; Table 2 (repeated screening)): 90.3% | inhibition at 50 µg/mL ([7]; Table 3 (repeated screening)): 90% | IC50 [8]: 0.89 µg/mL | IC50 [9]: > 632 µM | inhibition rate, Results (%) Bel-7402 ([10]; Table 2 (repeated screening)): 5.36% | inhibition rate, Results (%) Bel-7402 ([10]; Table 3 (repeated screening)): 1.23% | inhibition at 50 µg/mL ([10]; Table 1): 7.89% | Cytopathy and cell status, Sample ([11]; 200 μg/ml): Good | inhibition rate, Results (%) LLC ([12]; Table 2 (repeated screening)): 9.37% | inhibition rate, Results (%) LLC ([12]; Table 3 (repeated screening)): 15.32% | inhibition at 50 µg/mL ([12]; Table 1): 8.97% | inhibition rate, Results (%) MCF-7 ([13]; Table 1): 18.9% | inhibition rate, Results (%) MCF-7 ([13]; Table 2 (repeated screening)): 16.32% | inhibition rate, Results (%) MCF-7 ([13]; Table 3 (repeated screening)): 14.23% | IC50 [14]: 126 µM

C=C1CC2(OS(=O)(=O)[O-])OC3(CC2C(C)C)C(C)CCC13.[Na+] (centres unmarked) [Compound 21, Curcumol sodium sulfonate]
inhibition rate, Results (%) Hela ([1]; Table 1): 91.69% | inhibition rate, Results (%) Hela ([1]; Table 2 (repeated screening)): 90.11% | inhibition rate, Results (%) Hela ([1]; Table 3 (repeated screening)): 91.67% | IC50 [2]: 1.3 µg/mL | inhibition rate, Results (%) SMMC-7721 ([3]; Table 1): −7.26% | inhibition rate, Results (%) SMMC-7721 ([3]; Table 2 (repeated screening)): −1.82% | inhibition rate, Results (%) SMMC-7721 ([3]; Table 3 (repeated screening)): −2.93% | IC50 [4]: 0.89 µg/mL | inhibition rate, Results (%) HL-60 ([5]; Table 1): 93.12% | inhibition rate, Results (%) HL-60 ([5]; Table 2 (repeated screening)): 90.89% | inhibition rate, Results (%) HL-60 ([5]; Table 3 (repeated screening)): 89.79% | IC50 [6]: 4.99 µg/mL | inhibition rate, Results (%) U-937 ([7]; Table 1): 92.04% | inhibition rate, Results (%) U-937 ([7]; Table 2 (repeated screening)): 89.46% | inhibition rate, Results (%) U-937 ([7]; Table 3 (repeated screening)): 91.45% | IC50 [8]: 0.75 µg/mL | IC50 [9]: > 591 µM | inhibition rate, Results (%) Bel-7402 ([10]; Table 1): 5.36% | inhibition rate, Results (%) Bel-7402 ([10]; Table 2 (repeated screening)): 2.13% | inhibition rate, Results (%) Bel-7402 ([10]; Table 3 (repeated screening)): 3.12% | cell status of 12 and 24 h ([11]; 12.5 μg/ml): Good | cell status of 12 and 24 h ([11]; 25 μg/ml): Good | cell status of 12 and 24 h ([11]; 50 μg/ml): Good | cell status of 12 and 24 h ([11]; 100 μg/ml): Good | cell status of 12 and 24 h ([11]; 200 μg/ml): Normal | Cytopathy and cell status, Sample ([11]; 200 μg/ml): Normal | inhibition rate, Results (%) LLC ([12]; Table 1): 10.47% | inhibition rate, Results (%) LLC ([12]; Table 2 (repeated screening)): 1.89% | inhibition rate, Results (%) LLC ([12]; Table 3 (repeated screening)): 7.58% | inhibition rate, Results (%) MCF-7 ([13]; Table 1): 87.56% | inhibition rate, Results (%) MCF-7 ([13]; Table 2 (repeated screening)): 85.23% | inhibition rate, Results (%) MCF-7 ([13]; Table 3 (repeated screening)): 87.58% | IC50 [14, 15]: — (indicates that the initial concentration of the sample had a inhibition rate of less than 50% against HIV-1 IN.)
